Measured values reported in patent US20240384268A1, “Oligonucleotides” (Hudson Institute of Medical Research, priority 2021, published 2024).
In the oligonucleotide strings, read from the 5' end, every base follows the letter of its sugar. An asterisk marks phosphorothioate; unmarked linkages are phosphodiester. Other units and linkages are bracketed, terminal groups are in braces. A string of capitals states the bases alone. d = 2'-deoxy (DNA); m = 2'-O-methyl

Biological target: T1, TLR8 (Homo sapiens, UniProt Q9NR97)
T1 sequence (Q9NR97 27-1041): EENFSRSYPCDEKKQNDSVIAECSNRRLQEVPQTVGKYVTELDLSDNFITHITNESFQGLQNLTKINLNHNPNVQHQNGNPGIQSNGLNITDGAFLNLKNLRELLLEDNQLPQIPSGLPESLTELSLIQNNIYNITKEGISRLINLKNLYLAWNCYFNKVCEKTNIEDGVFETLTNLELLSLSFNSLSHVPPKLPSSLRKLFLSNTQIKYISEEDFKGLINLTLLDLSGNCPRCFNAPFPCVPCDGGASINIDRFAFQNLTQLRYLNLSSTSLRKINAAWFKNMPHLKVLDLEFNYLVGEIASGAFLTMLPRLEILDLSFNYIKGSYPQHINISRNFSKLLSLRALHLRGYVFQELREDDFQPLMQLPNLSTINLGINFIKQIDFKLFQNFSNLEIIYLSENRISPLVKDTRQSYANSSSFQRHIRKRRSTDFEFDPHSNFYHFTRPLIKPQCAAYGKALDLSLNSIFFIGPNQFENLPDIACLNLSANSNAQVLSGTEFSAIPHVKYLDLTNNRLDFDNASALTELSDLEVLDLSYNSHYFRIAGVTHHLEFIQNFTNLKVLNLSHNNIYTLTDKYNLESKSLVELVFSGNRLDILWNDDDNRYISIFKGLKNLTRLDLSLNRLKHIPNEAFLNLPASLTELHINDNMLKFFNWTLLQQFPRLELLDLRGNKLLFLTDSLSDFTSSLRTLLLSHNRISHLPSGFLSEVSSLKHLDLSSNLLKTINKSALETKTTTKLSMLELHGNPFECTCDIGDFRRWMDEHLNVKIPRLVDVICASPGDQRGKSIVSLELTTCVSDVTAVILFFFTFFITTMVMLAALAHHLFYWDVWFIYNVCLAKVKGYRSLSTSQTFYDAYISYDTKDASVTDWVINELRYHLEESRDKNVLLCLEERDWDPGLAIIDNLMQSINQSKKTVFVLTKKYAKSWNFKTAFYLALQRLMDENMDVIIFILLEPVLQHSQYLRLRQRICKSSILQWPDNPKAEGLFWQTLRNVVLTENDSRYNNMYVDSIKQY
Assay: R848-driven IP-10 production in THP-1 cells (TLR8);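 note: IP-10 by ELISA in supernatant after 7 h R848 stimulation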
Assay type: cell-based
Parameters: expressed in transfected cells
Conditions: 3mer 2'OMe ASO at 1 uM; raw values, Ligand only = 355.752, NT = 134.831

Substance	TLR8 1 uM
AAU (antisense mA*mA*mU)	202.802
ACU (antisense mA*mC*mU)	250.907
AGU (antisense mA*mG*mU)	270.256
AUA (antisense mA*mU*mA)	157.293
AUG (mA*mU*mG)	151.847
AUU (mA*mU*mU)	274.683
CAU (mC*mA*mU)	388.191
CCU (mC*mC*mU)	332.524
CGU (mC*mG*mU)	346.350
CUA (mC*mU*mA)	243.564
CUC (mC*mU*mC)	245.566
CUG (mC*mU*mG)	264.072
GCU (mG*mC*mU)	193.279
GGU (mG*mG*mU)	274.989
UAA (mU*mA*mA)	224.188
UAC (mU*mA*mC)	254.486
UAG (mU*mA*mG)	226.441
UAU (mU*mA*mU)	213.758
UCC (mU*mC*mC)	346.575
UCU (mU*mC*mU)	371.961
UGC (mU*mG*mC)	278.054
UGU (mU*mG*mU)	331.923
UUA (mU*mU*mA)	350.207

Biological target: cGAS (Homo sapiens, UniProt Q8N884)
Sequence (Q8N884 whole entry): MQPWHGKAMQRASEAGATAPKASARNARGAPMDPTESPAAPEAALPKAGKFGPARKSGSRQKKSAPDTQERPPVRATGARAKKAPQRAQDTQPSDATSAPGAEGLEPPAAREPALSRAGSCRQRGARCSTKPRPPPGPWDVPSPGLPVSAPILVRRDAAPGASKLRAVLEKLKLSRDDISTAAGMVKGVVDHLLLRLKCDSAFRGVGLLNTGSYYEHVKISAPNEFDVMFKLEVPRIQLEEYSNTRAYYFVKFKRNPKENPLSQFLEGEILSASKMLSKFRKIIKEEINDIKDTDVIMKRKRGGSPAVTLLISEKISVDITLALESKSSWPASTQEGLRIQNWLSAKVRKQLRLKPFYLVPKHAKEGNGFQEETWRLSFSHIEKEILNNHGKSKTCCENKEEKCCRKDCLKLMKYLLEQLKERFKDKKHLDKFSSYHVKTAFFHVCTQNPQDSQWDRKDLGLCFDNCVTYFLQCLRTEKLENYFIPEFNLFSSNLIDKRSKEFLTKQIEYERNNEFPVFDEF
Assay: ISD70-driven IP-10 (and IFN-β) production in THP-1 cells, ELISA
Assay type: cell-based
Parameters: endogenous in cells; host or cells: THP-1 (undifferentiated)
Conditions: ASO 100 nM; relative to ISD70 only, given as fraction

Substance	cGAS 100 nM (averaged IP-10 level relative to ISD70 condition)
ACACTTCGTGGGGTCC (antisense; LNA-modified, pattern not given here) [HPRT LNA-665 V1]	0.516
CAACACTTCGTGGGGT (antisense; LNA-modified, pattern not given here) [HPRT LNA-667 V1]	0.675
CCAAGATCAGCAGTCT (antisense; LNA-modified, pattern not given here) [CTNN2B-2341 LNA KL]	0.356
CCATCCATGAGGTCCT (antisense; LNA-modified, pattern not given here) [CTNN2B-2545 LNA V1]	0.533
GATAGCACCTTCAGCA (antisense; LNA-modified, pattern not given here) [CTNN2B-1294 LNA KL]	0.436
GCAGGCTCAGTGATGT (antisense; LNA-modified, pattern not given here) [CTNN2B-1642 LNA V1]	0.458
GCATCCACCACGTCGT (antisense; LNA-modified, pattern not given here) [EGFR-3267 LNA V1]	0.602
GCCATCCACTTGATAG (antisense; LNA-modified, pattern not given here) [EGFR-2874 LNA V1]	0.688
GCCATGCTGGCTCGGA (antisense; LNA-modified, pattern not given here) [CAMSAP1-2584 LNA V1]	0.599
GCCATGTTTCTTCTTG (antisense; LNA-modified, pattern not given here) [MB21D1-1248 LNA KL]	0.639
GGCTGGAATCCGAGTT (antisense; LNA-modified, pattern not given here) [EGFR-4705 LNA KL]	0.592
GGTTACGGCTCAGTAT (antisense; LNA-modified, pattern not given here) [CAMSAP1-4295 LNA KL]	0.661
GTATCGAAAGAGTCTG (antisense; LNA-modified, pattern not given here) [EGFR-3908 LNA KL]	0.609
GTCCCCTGTTGACTGG (antisense; LNA-modified, pattern not given here) [HPRT LNA-489 KL]	0.606
GTCTTGGCTTCGTGGA (antisense; LNA-modified, pattern not given here) [MB21D1-522 LNA V1]	0.620
GTGTCTGGAAGCTTCC (antisense; LNA-modified, pattern not given here) [CTNN2B-809 LNA V1]	0.482
GTTCAGTCCTGTCCAT (antisense; LNA-modified, pattern not given here) [HPRT LNA-292 V1]	0.563
TCCAACACTTCGTGGG (antisense; LNA-modified, pattern not given here) [HPRT LNA-669 V1]	0.539
TCGTAGTTGCTTCCTA (antisense; LNA-modified, pattern not given here) [MB21D1-1181 LNA KL]	0.610
TGATGGCCTCCCATCT (antisense; LNA-modified, pattern not given here) [HPRT LNA-332 V1]	0.650
TGCACACTTCGTACCC (antisense; LNA-modified, pattern not given here) [CAMSAP1-4916 LNA V1]	0.572
TGGCCTCCCATCTCCT (antisense; LNA-modified, pattern not given here) [HPRT LNA-329 V1]	0.494
TGTGATGGCCTCCCAT (antisense; LNA-modified, pattern not given here) [HPRT LNA-334 V1]	0.557
TTCGTGGGGTCCTTTT (antisense; LNA-modified, pattern not given here) [HPRT LNA-661 V1]	0.520
TTTTGGCTGGGATCAA (antisense; LNA-modified, pattern not given here) [CAMSAP1-4697 LNA KL]	0.590

Same assay, conditions: THP-1; 125 nM oligonucleotide 6 h, ISD70 overnight

Substance	IFN-β production after ISD70 transfection: reduction
T*T*A* G*G*G* T*T*A* G*G*G* T*T*A* G*G*G* T*T*A* G*G*G [A151, reference compound]	~50%
mG*mC*mG*mG*mU*A*T*C*C*A*T*G*T*C*C*mC*mA*mG*mG*mC (mG*mC*mG*mG*mU*dA*dT*dC*dC*dA*dT*dG*dT*dC*dC*mC*mA*mG*mG*mC; antisense) [C2-Mut1]	blocked

Same assay, conditions: THP-1; 300 nM LNA or 200 nM MOE ASO ~30 min; ISD70 overnight (FIG. 21, 23)

Substance	inhibition of cGAS in THP-1, LNA and MOE ASO validation (in words)
GTGTCTGGAAGCTTCC (antisense; LNA-modified, pattern not given here) [CTNN2B-809 LNA V1]	potently inhibited signalling

Same assay, conditions: THP-1; 2′OMe or PS oligos, 100-250 nM, pre-treatment as in figure legends; ISD70 2.5 μg/ml

Substance	inhibition of ISD70-driven IP-10 production (in words)
mC*mG*mU*T*T*C*C*C*C*C*C*C*C*C*C*C*C*C*C*C (CGUTTCCCCCCCCCCCCCCC; antisense; sugars from the 5' end m3 d17, all phosphorothioate, methylation of C not given here) [[C2]Mut1-v3-dC]	lacked significant inhibitory activity
mG*mC*mG*mG*mU*A*T*C*C*A*T*G*T*C*C*mC*mA*mG*mG*mC (mG*mC*mG*mG*mU*dA*dT*dC*dC*dA*dT*dG*dT*dC*dC*mC*mA*mG*mG*mC; antisense) [C2-Mut1]	most inhibitory sequence of ISD70 sensing
mG*mG*mU*A*T*C*C*C*C*C*C*C*C*C*C*C*C*C*C*C (GGUATCCCCCCCCCCCCCCC; antisense; sugars from the 5' end m3 d17, all phosphorothioate, methylation of C not given here) [[C2]Mut1-dC]	significantly more inhibitory than its precursor dC20

Same assay, conditions: THP-1; 6 h pre-treatment, ISD70 2.5 μg/ml overnight (FIG. 3A); listed as C2-Mutl; read-out: IC50 (IP-10 production after ISD70 transfection)

Substance	IC50 [µM]
mG*mC*mG*mG*mU*A*T*C*C*A*T*G*T*C*C*mC*mA*mG*mG*mC (mG*mC*mG*mG*mU*dA*dT*dC*dC*dA*dT*dG*dT*dC*dC*mC*mA*mG*mG*mC; antisense) [C2-Mut1]	~0.056

Same assay, conditions: THP-1; 6 h pre-treatment, ISD70 2.5 μg/ml overnight (FIG. 3A); read-out: IC50 (IP-10 production after ISD70 transfection)

Substance	IC50 [µM]
T*T*A* G*G*G* T*T*A* G*G*G* T*T*A* G*G*G* T*T*A* G*G*G [A151, reference compound]	0.165
mG*mC*mG*mG*mU*A*T*C*C*A*T*G*T*C*C*mC*mA*mG*mG*mC (mG*mC*mG*mG*mU*dA*dT*dC*dC*dA*dT*dG*dT*dC*dC*mC*mA*mG*mG*mC; antisense) [C2-Mut1]	0.056
